System: H358 cells
Experiment: Cell activity experiment: activity test of H358 cells (MTT, 5 days)
Type: cell-based
Conditions: 5 days incubation, absorbance 492 nm
How it was run: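 Viability was read by MTT: 4 h dye incubation, DMSO solubilisation, absorbance at 492 nm. This followed 5 days' treatment (37° C., 5% CO2) of H358 cells, pre-grown 24 h, with eight-point 3-fold dilutions up to 10000 nM final, 0.5% DMSO final, triplicate wells.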

SMILES | IC50 (Homo sapiens, NCI-H358, 120 h) [nM] | IC50 [nM]
C=C(F)C(=O)N1CCN(c2nc(OCC34CCCN3CCC4)nc3c(F)c(-c4cccc5c4[C@H]4C[C@H]4C5)ncc23)C[C@@H]1CC#N [Example 64, 2-((S)-4-(8-fluoro-2-((tetrahydro-1H-pyrrolizin-7a(5H)-yl)methoxy)-7-((1aS,6aS)-1,1a,6,6a-tetrahydrocyclopropa[a]inden-2-yl)pyridino[4,3-d]pyrimidin-4-yl)-1-(2-fluoroacryloyl)piperazin-2-yl)acetonitrile] | 10 | –
C=CC(=O)N1CCN(c2nc(OCC34CCCN3CCC4)nc3c(F)c(-c4cccc5c4[C@@H]4C[C@@H]4C5)ncc23)C[C@@H]1CC#N [Example 65] | 3.2 | –
C=C(F)C(=O)N1CCN(c2nc(OCC34CCCN3CCC4)nc3c(F)c(-c4cccc5c4[C@@H]4C[C@@H]4C5)ncc23)C[C@@H]1CC#N [Example 66, 2-((S)-4-(8-fluoro-2-((tetrahydro-1H-pyrrolizin-7a(5H)-yl)methoxy)-7-((1aR,6aR)-1,1a,6,6a-tetrahydrocyclopropa[a]inden-2-yl)pyridino[4,3-d]pyrimidin-4-yl)-1-(2-fluoroacryloyl)piperazin-2-yl)acetonitrile] | 9 | –
C=CC(=O)N1CCN(c2nc(OC[C@@]34CCCN3C[C@H](F)C4)nc3c(F)c(-c4cccc5c4C4CC4C5)ncc23)C[C@@H]1CC#N (some centres unmarked) [Example 67] | 0.07 | –
C=C(F)C(=O)N1CCN(c2nc(OC[C@@]34CCCN3C[C@H](F)C4)nc3c(F)c(-c4cccc5c4C4CC4C5)ncc23)C[C@@H]1CC#N (some centres unmarked) [Example 68] | 0.33 | –
C=CC(=O)N1CCN(c2nc(OC[C@@]34CCCN3C[C@H](F)C4)nc3c(F)c(-c4cccc5c4[C@H]4C[C@H]4C5)ncc23)C[C@@H]1CC#N [Example 69] | 1.8 | –
C=C(F)C(=O)N1CCN(c2nc(OC[C@@]34CCCN3C[C@H](F)C4)nc3c(F)c(-c4cccc5c4[C@H]4C[C@H]4C5)ncc23)C[C@@H]1CC#N [Example 70] | 7 | –
C=CC(=O)N1CCN(c2nc(OC[C@@]34CCCN3C[C@H](F)C4)nc3c(F)c(-c4cccc5c4[C@@H]4C[C@@H]4C5)ncc23)C[C@@H]1CC#N [Example 71] | 0.2 | –
C=C(F)C(=O)N1CCN(c2nc(OC[C@@]34CCCN3C[C@H](F)C4)nc3c(F)c(-c4cccc5c4[C@@H]4C[C@@H]4C5)ncc23)C[C@@H]1CC#N [Example 72] | 8 | –
C=CC(=O)N1CCN(c2nc(OC[C@@H]3CCCN3C)nc3c(F)c(-c4cccc5c4CCCC5)c(Cl)cc23)C[C@@H]1CC#N [Example 74] | – | 25
C=CC(=O)N1CCN(c2nc(OC[C@@H]3CCCN3C)nc3cc(-c4cccc5c4CCCC5)c(Cl)cc23)C[C@@H]1CC#N [Example 75, 2-((S)-1-acryloyl-4-(6-chloro-2-(((S)-1-methylpyrrolidin-2-yl)methoxy)-7-(5,6,7,8-tetrahydronaphthalen-1-yl)quinazolin-4-yl)piperazin-2-yl)acetonitrile] | 86 | –
C=CC(=O)N1CCN(c2nc(OC[C@@H]3CCCN3C)nc3c(F)c(-c4cccc5c4CCCC5)c(Cl)cc23)CC1 [Example 76, 1-(4-(6-chloro-8-fluoro-2-(((S)-1-methylpyrrolidin-2-yl)methoxy)-7-(5,6,7,8-tetrahydronaphthalen-1-yl)quinazolin-4-yl)piperazin-1-yl)prop-2-en-1-one] | 160 | –
C=CC(=O)N1CCN(c2nc(OC[C@@H]3CCCN3C)nc3nc(-c4cccc5c4CCCC5)ccc23)C[C@@H]1CC#N [Example 77, 2-((S)-1-acryloyl-4-(2-(((S)-1-methylpyrrolidin-2-yl)methoxy)-7-(5,6,7,8-tetrahydronaphthalen-1-yl)pyridino[2,3-d]pyrimidin-4-yl)piperazin-2-yl)acetonitrile] | 55 | –

Further lines, with some results ahead:

IC50 (Homo sapiens, NCI-H358, 120 h) [nM] | SMILES | IC50 [nM]
60 | C=C(F)C(=O)N1CCN(c2nc(OC[C@@H]3CCCN3C)nc3cc(-c4cccc5cccc(Cl)c45)ccc23)C[C@@H]1CC#N [Example 78] | –
20 | C=CC(=O)N1CCN(c2nc(OC[C@@H]3C[C@@H](F)CN3C)nc3cc(-c4cccc5cccc(Cl)c45)ccc23)C[C@@H]1CC#N [Example 79, 2-((S)-1-acryloyl-4-(7-(8-chloronaphthalen-1-yl)-2-((((2S,4R)-4-fluoro-1-methylpyrrolidin-2-yl]methoxy))quinazolin-4-yl)piperazin-2-yl)acetonitrile] | –
65 | C=C(F)C(=O)N1CCN(c2nc(OC[C@@H]3C[C@@H](F)CN3C)nc3cc(-c4cccc5cccc(Cl)c45)ccc23)C[C@@H]1CC#N [Example 80] | –
5.5 | C=CC(=O)N1CCN(c2nc(OCC34CCCN3CCC4)nc3cc(-c4cccc5cccc(Cl)c45)ccc23)C[C@@H]1CC#N [Example 81] | –
12 | C=C(F)C(=O)N1CCN(c2nc(OCC34CCCN3CCC4)nc3cc(-c4cccc5cccc(Cl)c45)ccc23)C[C@@H]1CC#N [Example 82, (S)-2-(4-(7-(8-chloronaphthalen-1-yl)-2-((tetrahydro-1H-pyrrolizin-7a(5H)-yl)methoxy)quinazolin-4-yl)-1-(2-fluoroacryloyl)piperazin-2-yl)acetonitrile] | –
3.2 | C=CC(=O)N1CCN(c2nc(OC[C@@]34CCCN3C[C@H](F)C4)nc3cc(-c4cccc5cccc(Cl)c45)ccc23)C[C@@H]1CC#N [Example 83] | –
10 | C=C(F)C(=O)N1CCN(c2nc(OC[C@@]34CCCN3CC(F)C4)nc3cc(-c4cccc5cccc(Cl)c45)ccc23)C[C@@H]1CC#N (some centres unmarked) [Example 84] | –
6 | C=CC(=O)N1CC[C@@H]2[C@H]1CN2c1nc(OC[C@@H]2CCCN2C)nc2cc(-c3cccc4cccc(Cl)c34)ccc12 [Example 85, 1-((1R,5R)-6-(7-(8-chloronaphthalen-1-yl)-2-(((S)-1-methylpyrrolidin-2-yl)methoxy)quinazolin-4-yl)-2,6-diazabicyclo[3.2.0]hept-2-yl)prop-2-en-1-one] | –
6.5 | C=CC(=O)N1CCN(c2nc(OC[C@@H]3CCCN3C)nc3cc(-c4cccc5ccc(F)c(Cl)c45)ccc23)C[C@@H]1CC#N [Example 93, 2-((S)-1-acryloyl-4-(7-(8-chloro-7-fluoronaphthalen-1-yl)-2-(((S)-1-methylpyrrolidin-2-yl)methoxy)quinazolin-4-yl)piperazin-2-yl)acetonitrile] | –
15 | C=C(F)C(=O)N1CCN(c2nc(OC[C@@H]3CCCN3C)nc3cc(-c4cccc5ccc(F)c(Cl)c45)ccc23)C[C@@H]1CC#N [Example 94, 2-((S)-4-(7-(8-chloro-7-fluoronaphthalen-1-yl)-2-(((S)-1-methylpyrrolidin-2-yl)methoxy)quinazolin-4-yl)-1-(2-fluoroacryloyl)piperazin-2-yl)acetonitrile] | –
8 | C=CC(=O)N1CCN(c2nc(OC[C@@H]3C[C@@H](F)CN3C)nc3cc(-c4cccc5ccc(F)c(Cl)c45)ccc23)C[C@@H]1CC#N [Example 95] | –
25 | C=C(F)C(=O)N1CCN(c2nc(OC[C@@H]3C[C@@H](F)CN3C)nc3cc(-c4cccc5ccc(F)c(Cl)c45)ccc23)C[C@@H]1CC#N [Example 96] | –
0.49 | C=CC(=O)N1CCN(c2nc(OCC34CCCN3CCC4)nc3cc(-c4cccc5ccc(F)c(Cl)c45)ccc23)C[C@@H]1CC#N [Example 97, (S)-2-(1-acryloyl-4-(7-(8-chloro-7-fluoronaphthalen-1-yl)-2-((tetrahydro-1H-pyrrolizin-7a(5H)-yl)methoxy)quinazolin-4-yl)piperazin-2-yl)acetonitrile] | –

From patent publication US20240109893A1, “PREPARATION AND APPLICATION METHOD OF HETEROCYCLIC COMPOUNDS AS KRAS INHIBITOR” (SHANGHAI KECHOW PHARMA, INC., priority 2020, published 2024)
